Where two headings read alike, the source gives them in different places.
Key:
T. brucei rhodesiense = conditions: in vitro growth inhibition; cited from earlier work
TbPTR1 = molecular target: T1, TbPTR1 (Trypanosoma brucei brucei, UniProt O76290); assay: Spectrophotometric inhibition assay with recombinant TbPTR1; type: biochemical; conditions: for inhibition at 100 µM: read-out: TbPTR1 Inhibition at 100 µM (%); for EC50: EC50 reported because complete inhibition not reached (solubility issues), read-out: TbPTR1 EC50 (footnote a in IC50 column)
T1 sequence (O76290 1-268): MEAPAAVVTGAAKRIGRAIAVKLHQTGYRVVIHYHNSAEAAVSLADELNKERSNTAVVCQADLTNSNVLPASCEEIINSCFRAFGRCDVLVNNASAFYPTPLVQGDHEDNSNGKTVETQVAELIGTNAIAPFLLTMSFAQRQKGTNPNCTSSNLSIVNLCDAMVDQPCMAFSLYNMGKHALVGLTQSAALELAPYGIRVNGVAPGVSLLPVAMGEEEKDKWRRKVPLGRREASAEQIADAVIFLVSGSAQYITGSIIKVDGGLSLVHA
Description: The concentration and the activity of TbPTR1, as well as the saturating conditions of its substrate and co-substrate were determined by monitoring the oxidation of the co-substrate NADPH to NADP^+ via UV/Vis spectroscopy (Hitachi U-2900, Tokyo, Japan). […] The experiments were carried out as triplicates using buffer A (50 mM Tris/HCl (pH 7.6), 250 mM NaCl).
(§1) The concentration of TbPTR1 was 3.23 mg/mL. Its specific activity was calculated to be 0.03 U/mg. All experiments were carried out using the saturating concentrations of folic acid (8 µM) and NADPH (150 µM). The diagrams for the determination of the saturating conditions are depicted in the Supplementary Materials Figure S15.
(§2) All measurements were carried out as duplicates and compared with a reference containing no inhibitor. The reference measurements were used to determine the full catalytic activity of the respective enzyme (100%), and the relative catalytic activity of all following measurements including inhibitors was calculated accordingly.
(§3) The compounds that were able to inhibit the activity of TbPTR1 or TbDHFR ≥ 50% in the single concentration assays were further investigated by the determination of their half maximal inhibitory concentration (IC50), including at least five inhibitor concentrations. If a complete inhibition of the enzyme could not be achieved experimentally due to the given assay conditions, the half maximal effective concentration (EC50) was determined instead. All measurements were carried out as triplicates against a reference containing no inhibitor at saturating conditions (Section 4.8.). The documented enzyme activity was analysed by nonlinear regression using GraphPad Prism 8 (GraphPad Software Inc., La Jolla, CA, USA).

TbDHFR = TbDHFR (Trypanosoma brucei brucei, UniProt Q27783); assay: Spectrophotometric inhibition assay with recombinant TbDHFR; type: biochemical; conditions: for inhibition at 50 µM / TbDHFR Inhibition at 50 µM (%): NADPH 150 µM, DHF 50 µM
Description: Kinetic analysis of TbDHFR was performed according to 4.5. All measurements were carried out as triplicates using buffer B (50 mM Tris/HCl (pH 7.6), 250 mM NaCl, 10 mM BME).
as §1, with “TbDHFR” for “TbPTR1”, “0.04 mg/mL with a” for “3.23 mg/mL. Its”, “of 38.1” for “was calculated to be 0.03”, “dihydrofolate (DHF, 50” for “folic acid (8”, “S16.” for “S15.”
as §2, §3

T. brucei = test system: T. brucei; parameters: method as in PMID 22331812; conditions: acute mouse model; cited from earlier work
[1] = 100 µM compound, NADPH 150 µM, folic acid 8 µM
[2] = 50 µM compound, read-out: TbDHFR Inhibition at 50 µM (%)

TbDHFR, sequence (Q27783 28-238 limits assumed): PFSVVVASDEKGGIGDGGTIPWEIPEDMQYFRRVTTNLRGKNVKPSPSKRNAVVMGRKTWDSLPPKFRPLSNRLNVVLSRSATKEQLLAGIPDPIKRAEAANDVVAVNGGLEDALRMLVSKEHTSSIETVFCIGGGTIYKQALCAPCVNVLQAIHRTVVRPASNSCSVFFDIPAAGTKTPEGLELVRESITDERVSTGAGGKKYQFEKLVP

SMILES	IC50 (T. brucei rhodesiense) [nM]	inhibition at 100 µM (TbPTR1; [1]) [%]	inhibition at 50 µM (TbDHFR; [2]) [%]	also measured
C=C1C(=O)OC2C1CC(OC(=O)C(C)C(C)O)C(C)=CCCC1(C)OC21 (stereo not shown) [Compound 3]	1300	73.1	> 50	IC50 (TbPTR1; saturating conditions, nonlinear regression, read-out: TbPTR1 IC50): 40500 nM; IC50 (TbDHFR; saturating conditions, nonlinear regression, read-out: TbDHFR IC50): 13300 nM
C=C(CO)C(=O)O[C@H]1CC(=C)[C@@H]2C[C@H](O)C(=C)[C@@H]2[C@H]2OC(=O)C(=C)[C@@H]21 [Compound 2, cynaropicrin]	300			in vivo activity against the parasite (T. brucei): in vivo activity against the parasite; IC50 (TbPTR1): 12400 nM; inhibition at 100 µM (TbPTR1): 92.1%; IC50 (TbDHFR): 7100 nM
C=C1C(=O)O[C@@H]2/C=C(/CO)C3=CC(=O)[C@@](C)(C[C@@H](OC(=O)/C(C)=C\C)[C@@H]12)O3 [Compound 4]	100	79.9	34.9	IC50 (TbPTR1): 30500 nM
C=C1C(=O)O[C@@H]2/C=C(\C)C[C@H](O)/C=C(\C)C[C@@H](OC(=O)/C(=C\C)COC(C)=O)[C@@H]12 [Compound 7]	1600			inhibition at 100 µM (TbPTR1): 25.6%; inhibition at 50 µM (TbDHFR; read-out: TbDHFR Inhibition at 50 µM (%), 50 µM compound): 48.7%
C=C1C(=O)O[C@@H]2/C=C(\CO)CC/C=C(\C)C[C@H](OC(=O)C(=C)[C@H](O)CO)[C@@H]12 [Compound 1, cnicin]	400	63.9	15.2	EC50 (TbPTR1): 21200 nM
C=C1C(=O)OC2C=C(C)C(O)CC=C(C)CC(OC(=O)C(=CCOC(=O)C(O)C(C)C)CO)C12 (stereo not shown) [Compound 9]	2600	28.5	95.9	
C=C1C(=O)OC2C=C(C)C(O)CC=C(C)CC(OC(=O)C(=CCOC(=O)C(O)C(C)CC)CO)C12 (stereo not shown) [Compound 10]	4000	26.7	20.1	
C=C1C(=O)OC2C=C(C)C(OC(C)=O)CC=C(C)CC(OC(=O)C(=CCO)CO)C12 (stereo not shown) [Compound 5, (Z)-eucannabinolide]	1700	58.1		EC50 (TbPTR1): 31500 nM; TbDHFR Inhibition at 50 µM (%) (TbDHFR; 50 µM compound): No TbDHFR inhibition could be detected and n.i.
C=C1C(=O)O[C@H]2[C@H]1[C@H](OC(=O)/C(=C/COC(=O)C(O)C(C)C)CO)C[C@]1(C)[C@@H]2[C@H](C)C(=O)C[C@H]1O (stereo partly shown) [Compound 8]	2700	14.2	40.7	
C=C1C(=O)OC2C=C(C)C(OC(=O)C(O)C(C)C)CC=C(C)CC(OC(=O)C(=CCO)CO)C12 (stereo not shown) [Compound 6]	800	33.1		TbDHFR Inhibition at 50 µM (%) (TbDHFR; 50 µM compound): n.i.

Source: paper PMC8747069, “Sesquiterpene Lactones with Dual Inhibitory Activity against the Trypanosoma brucei Pteridine Reductase 1 and Dihydrofolate Reductase” (Molecules, 2021)
